Measured values published in the supplement of paper PMC10883282.

Legend:
Assay in all cases: relative viability vs DMSO control (72 h) (fraction); higher = more viable cells
[1] = system: SW684
In short: (§1)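 Densities for seeding sarcoma cell lines into 384-well plates were set to give 80–90% confluence. After 24 h, 2.5 µl of serially diluted compound from source plates of 10 mM to 0.0002 mM went in, and plates stayed 72 h at 37 °C in 5% CO2 with 0.1% DMSO vehicle and a 5 µM positive control. Percent growth from ATPLite readings, averaged over up to triplicate wells, served as relative viability, rescaled so 1 means full and 0 means none.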

[2] = system: G401
In short: as §1

[3] = system: VA-ES-BJ
In short: as §1

[4] = system: SW872
In short: as §1

[5] = system: MES-SA
In short: as §1

[6] = system: SK-LMS-1
In short: as §1

Cc1cc2cc(Oc3ccnc(Nc4cccc(CS(=O)(=O)NCCN(C)C)c4)n3)ccc2[nH]1 [Sulfatinib]
relative viability
Settings | [1] | [2] | [3] | [4] | [5] | [6]
0.00017 µM | 1.11 | 1.024 | 1.03 | 1.02 | 0.911 | 1
0.00051 µM | 1.09 | 0.976 | 1.03 | 1.05 | 0.92 | 1.07
0.00152 µM | 1.09 | 1.01 | 1.02 | 1.02 | 0.913 | 1.01
0.00457 µM | 1.12 | 0.995 | 1.03 | 1.02 | 0.906 | 1.04
0.01372 µM | 1.08 | 1.04 | 1.02 | 1 | 0.925 | 1.04
0.04115 µM | 1.07 | 0.993 | 1.02 | 0.996 | 0.894 | 1.03
0.1235 µM | 1.04 | 0.983 | 1 | 1.02 | 0.9221 | 1.03
0.3704 µM | 1.1 | 1.02 | 1.04 | 1.02 | 0.9312 | 0.986
1.111 µM | 1.05 | 0.969 | 1.08 | 0.973 | 0.969 | 1.01
3.333 µM | 0.995 | 0.536 | 1.04 | 0.88 | 0.791 | 0.924
10 µM | 0.555 | 0.157 | 0.486 | 0.526 | 0.299 | 0.531
